“Also recorded” adds a separate entry of the source.
Legend:
serum Aβ1-40 and Aβ1-42 [1] = assay: amylin challenge test: i.p. injection, serum Aβ1-40 and Aβ1-42 by ELISA, Tg2576 mice; format: in vivo; conditions: 5 minutes
Experimental: (§1) TgAPP2576 mice (n=5) and control mice (n=5) were used. Intraperitoneal injection of amylin (20 mg/kg) was performed, and blood was drawn and collected at pre-injection, after injection at 5 minutes, 1 hr and 24 hrs. Serum Aβ1-40 and Aβ1-42 were measured using ELISA assay. The results of serum Aβ1-40 and Aβ1-42 for each individual mouse are shown. This experiment has been repeated twice for each mouse and similar results were obtained.
(§2) As shown at FIGS. 3A-3E, amylin injection removes Aβ from the brain into blood in APP transgenic mice. Both the Tg2576 and wild type (WT) mice were used for the amylin challenge test. FIGS. 3A-3B. Amylin (20 mg/kg) was intraperitoneally injected (i.p), and blood was drawn and collected at the time points of pre-injection (the control n=7; Tg2576 n=11), after injection 5 minutes (the control n=7; Tg2576 n=6), 1 hr (the control n=7; Tg2576 n=10) and 24 hrs (the control n=7; Tg2576 n=11). Serum Aβ1-40 and Aβ1-42 were measured by using the ELISA assays. FIGS. 3C-3E. The levels of serum Aβ1-40 and Aβ1-42 at pre-injection of amylin were treated as 1 s, and the relative fold increase after amylin injection at each time point was shown and compared with the pre-injection level by using two-way ANOVA. ***p<0.01; **p<0.05 and *p<0.10.
(§3) FIGS. 6A-6D depict amylin injection and serum Aβ in mice. Both control mice (wild type) and Tg2576 mice were used for the amylin injection test. Amylin (20 mcg/kg) was intraperitoneally injected (i.p), and blood was drawn at the following time points: at baseline or pre-injection (controls n=7; Tg2576 n=11), at 5 minutes (controls n=7; Tg2576 n=6), at 1 hr (controls n=7; Tg2576 n=10) and at 24 hrs (controls n=7; Tg2576 n=11) post injection. Serum Aβ1-40 and Aβ1-42 were measured by using the ELISA assays. The levels of serum Aβ1-40 and Aβ1-42 at pre-injection of amylin were treated as 1 s, and the relative fold increase after amylin injection at each time point was shown and compared with the pre-injection level by using a two-way ANOVA. ***p<0.01; **p<0.05 and *p<0.10.
(§4) Validation: We used the APP transgenic mice (Tg2576) to conduct amylin challenge test. Tg2576 mice have Aβ deposits in the brain like the AD pathology. After intraperitoneal injection of amylin (20 mg/kg), Tg2576 mice (n=5) presented with the increase of serum Aβ40 and Aβ42 at 5 minutes, 1 hr and 24 hrs compared to the pre-injection levels of serum Aβ40 and Aβ42.

serum Aβ1-40 and Aβ1-42 [2] = assay: amylin challenge test: i.p. injection, serum Aβ1-40 and Aβ1-42 by ELISA, control (wild type) mice; format: in vivo
Experimental: as §1, §2, §3
FIG. 7 depicts results of i.p injection of pramlintide, an analog of amylin, into one Tg2576 mouse (A1) and two wild type mice (N1 and N2) and comparison of their serum Aβ40 level before and after the injection.
as §4

serum Aβ1-40 and Aβ1-42 [3] = assay: amylin challenge test, serum Aβ, 5XFAD mice; format: in vivo
From the text: The higher the levels of Aβ and the number of amyloid plaques in the brain, the higher fold of serum Aβ was increased after the peripheral amylin challenge.

[4] = test system: Aβ1-40 and Aβ1-42 in blood; assay: amylin challenge test, blood Aβ, APP Dutch mutation mouse line; format: in vivo, APP mouse line which carries the APP Dutch mutation
5XFAD mice [5] = assay: Y Maze Spontaneous Alternation test after long-term amylin treatment; format: in vivo; conditions: 5XFAD mice aged 2 months; amylin 20 mcg/kg i.p. daily for 10 weeks vs. saline; n=8
Experimental: Since amylin can enhance the removal of Aβ out of the brain into blood, it was tested whether amylin and its analogs can be a treatment for AD. Thus, we treated 5XFAD mice aged 2 months old with i.p injection of amylin (20 mcg/kg) vs. saline (n=8 in each group) daily for 10 weeks, and then conducted Y Maze Spontaneous Alternation test for measuring the willingness of mice to explore new environments.

5XFAD mice [6] = assay: Y-water Maze test after long-term amylin treatment; format: in vivo
Experimental: 5XFAD mice were treated with either i.p amylin or saline for 8 weeks followed by Y-water maze test. The average latency of recognizing the object after the training was calculated for each group (n=10) and statistical significance for the comparison is shown.

[7] = test system: Aβ monomers and Aβ oligomers in the brain; assay: Aβ in the brain after amylin treatment, western blots and ELISA assays; format: in vivo; conditions: 5XFAD mice; amylin treatment compared to saline
From the text: Changes of Aβ in the brain were examined after the amylin treatment in 5XFAD mice using both western blots and ELISA assays. […] Thus, without wishing to be bound or limited by theory, the benefits of memory improvement from amylin treatment is mediated, in part, by 1) removing Aβ from the AD brain into blood and 2) reducing the amount of Aβ oligomers in the brain.

mouse models = assay: daily dosing in mouse models, memory functions; format: in vivo, mice
[8] = Banks and Kastin, 1998; cited from earlier work
[9] = Tg2576 mice (n=5), amylin 20 mg/kg intraperitoneal, 1 hr and 24 hrs
[10] = Tg2576 mice, single amylin injection 20 mcg/kg i.p., 1 hr, 24 hrs
[11] = control mice (n=5), amylin 20 mg/kg intraperitoneal
[12] = control mice (wild type), single amylin injection 20 mcg/kg i.p.

With “amylin (KCNTATCATQRLANFLVHSSNNFGAILSSTNVGSNTY; listed as Homo sapiens)” the “serum Aβ40 compared to the pre-injection level” value (serum Aβ1-40 and Aβ1-42 [1]; [9]) was “increase”, the “serum Aβ42 compared to the pre-injection level” value (serum Aβ1-40 and Aβ1-42 [1]; [9]) was “increase” and the “serum Aβ40 compared to the pre-injection level” value (serum Aβ1-40 and Aβ1-42 [1]; [10]) was “surges”. The “serum Aβ42 compared to the pre-injection level” value (serum Aβ1-40 and Aβ1-42 [1]; [10]) was “surges”, the “serum Aβ40 compared to the pre-injection level” value (serum Aβ1-40 and Aβ1-42 [2]; [11]) was “did not have these surges” and the “serum Aβ42 compared to the pre-injection level” value (serum Aβ1-40 and Aβ1-42 [2]; [11]) was “did not have these surges”. The “serum Aβ40 compared to the pre-injection level” value (serum Aβ1-40 and Aβ1-42 [2]; [12]) was “none of the control mice (wild type), had surges”, the “serum Aβ42 compared to the pre-injection level” value (serum Aβ1-40 and Aβ1-42 [2]; [12]) was “none of the control mice (wild type), had surges” and the Aβ1-42 in serum (serum Aβ1-40 and Aβ1-42 [3]; 5XFAD mice aged 3 months, i.p. injection of amylin) was “increased level”. The “serum Aβ levels after peripheral amylin injection” value (serum Aβ1-40 and Aβ1-42 [3]; different aged 5XFAD mice) was “increase of serum Aβ levels reflecting the amounts of Aβ in the brains”, the Aβ1-40 in blood [4] was “surge” and the “% alternation rate” value (5XFAD mice [5]) was “significantly increased”. For the same substance, the “Y-water maze, average latency of recognizing the object after the training” value (5XFAD mice [6]; 5XFAD mice, i.p. amylin or saline for 8 weeks, n=10) was “improves; also recorded: improved memory impairment”, the “time for acquisition (escaping onto the platform)” value (5XFAD mice [6]; APP transgenic mice, long-term amylin treatment vs placebo) was “significantly reduced” and the “memory retention: time to find the platform” value (5XFAD mice [6]; APP transgenic mice, long-term amylin treatment vs placebo, at 30 minutes and at 3 days, p<0.02) was “shortening the time to find the platform”. For the same substance, the “amount of Aβ monomers in the brain” value [7] was “did not change”, the “amount of Aβ oligomers in the brain” value [7] was “significantly reduced” and the “memory functions / cognition” value (mouse models) was “increased memory functions”. The “passage through the brain blood barrier (BBB) into the brain” value [8] was “freely passes through the brain blood barrier (BBB)”.
